In BindingDB's records for patent US20190276450 (Abbvie, 2019):

Tests used:
[1] = molecular target: Non-receptor tyrosine-protein kinase TYK2 (Homo sapiens, UniProt P29597); assay: TYK2 (TYK2/JAK2 PSTAT4 T-BLAST) Alpha Screen Assay
Experimental: IL-12 is known to transduce its signal through IL-12 receptor via Jak2 and/or Tyk2. For that reason, the activity against Tyk2/Jak2 was measured by determining the inhibition of IL-12 induced phosphorylation of STAT4 in T-blast cells. […] See, e.g., Sohn et al., J. Immunology (2013) 2205-2216.

[2] = molecular target: Tyrosine-protein kinase JAK1 (Homo sapiens, UniProt P23458); assay: JAK1 (PSTAT3 TF1) Alpha Screen Assay
Chain of Tyrosine-protein kinase JAK1 (P23458 whole entry): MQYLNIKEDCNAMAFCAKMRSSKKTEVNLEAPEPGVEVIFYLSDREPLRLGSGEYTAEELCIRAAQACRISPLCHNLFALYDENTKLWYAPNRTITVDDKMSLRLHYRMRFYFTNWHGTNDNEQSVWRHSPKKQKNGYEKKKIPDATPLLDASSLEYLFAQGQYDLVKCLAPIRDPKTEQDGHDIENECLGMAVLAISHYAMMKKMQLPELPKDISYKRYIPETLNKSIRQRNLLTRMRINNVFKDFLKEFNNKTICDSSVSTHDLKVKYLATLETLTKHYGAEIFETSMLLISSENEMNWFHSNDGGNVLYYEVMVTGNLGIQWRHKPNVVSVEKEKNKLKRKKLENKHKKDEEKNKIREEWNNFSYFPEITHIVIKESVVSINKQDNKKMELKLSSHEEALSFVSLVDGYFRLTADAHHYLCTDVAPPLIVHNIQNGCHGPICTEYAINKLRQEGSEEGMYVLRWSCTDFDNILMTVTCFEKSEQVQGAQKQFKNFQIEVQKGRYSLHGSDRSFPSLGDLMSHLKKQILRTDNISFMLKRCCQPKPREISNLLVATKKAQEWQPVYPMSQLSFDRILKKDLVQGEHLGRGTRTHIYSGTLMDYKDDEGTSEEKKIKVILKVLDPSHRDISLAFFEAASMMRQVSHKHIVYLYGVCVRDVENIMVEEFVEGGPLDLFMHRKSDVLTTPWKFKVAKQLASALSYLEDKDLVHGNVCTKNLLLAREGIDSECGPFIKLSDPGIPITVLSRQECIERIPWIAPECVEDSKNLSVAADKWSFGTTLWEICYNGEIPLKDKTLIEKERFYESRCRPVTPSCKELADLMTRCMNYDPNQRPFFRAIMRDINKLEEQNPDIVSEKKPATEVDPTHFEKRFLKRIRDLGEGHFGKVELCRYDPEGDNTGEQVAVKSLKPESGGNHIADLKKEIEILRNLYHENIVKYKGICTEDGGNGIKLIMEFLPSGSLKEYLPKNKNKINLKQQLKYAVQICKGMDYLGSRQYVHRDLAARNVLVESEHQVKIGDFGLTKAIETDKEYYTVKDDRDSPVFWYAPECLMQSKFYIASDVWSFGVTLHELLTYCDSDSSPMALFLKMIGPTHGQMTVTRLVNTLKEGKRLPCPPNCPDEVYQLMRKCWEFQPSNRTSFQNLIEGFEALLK
Experimental: IL-6 is known to transduce its signal through IL-6 receptor via Jak1. Activity against Jak was therefore measured by determining inhibition of IL-6 induced phosphorylation of STAT3 in TF1 cells. From these tests, the EC50 (effective concentration for 50% maximal response) values were determined in 1 μM for the test compounds.

[3] = molecular target: Tyrosine-protein kinase JAK2 (Homo sapiens, UniProt O60674); assay: JAK2 (PSTAT5 UT7) Alpha Screen Assay
Chain of Tyrosine-protein kinase JAK2 (O60674 whole entry): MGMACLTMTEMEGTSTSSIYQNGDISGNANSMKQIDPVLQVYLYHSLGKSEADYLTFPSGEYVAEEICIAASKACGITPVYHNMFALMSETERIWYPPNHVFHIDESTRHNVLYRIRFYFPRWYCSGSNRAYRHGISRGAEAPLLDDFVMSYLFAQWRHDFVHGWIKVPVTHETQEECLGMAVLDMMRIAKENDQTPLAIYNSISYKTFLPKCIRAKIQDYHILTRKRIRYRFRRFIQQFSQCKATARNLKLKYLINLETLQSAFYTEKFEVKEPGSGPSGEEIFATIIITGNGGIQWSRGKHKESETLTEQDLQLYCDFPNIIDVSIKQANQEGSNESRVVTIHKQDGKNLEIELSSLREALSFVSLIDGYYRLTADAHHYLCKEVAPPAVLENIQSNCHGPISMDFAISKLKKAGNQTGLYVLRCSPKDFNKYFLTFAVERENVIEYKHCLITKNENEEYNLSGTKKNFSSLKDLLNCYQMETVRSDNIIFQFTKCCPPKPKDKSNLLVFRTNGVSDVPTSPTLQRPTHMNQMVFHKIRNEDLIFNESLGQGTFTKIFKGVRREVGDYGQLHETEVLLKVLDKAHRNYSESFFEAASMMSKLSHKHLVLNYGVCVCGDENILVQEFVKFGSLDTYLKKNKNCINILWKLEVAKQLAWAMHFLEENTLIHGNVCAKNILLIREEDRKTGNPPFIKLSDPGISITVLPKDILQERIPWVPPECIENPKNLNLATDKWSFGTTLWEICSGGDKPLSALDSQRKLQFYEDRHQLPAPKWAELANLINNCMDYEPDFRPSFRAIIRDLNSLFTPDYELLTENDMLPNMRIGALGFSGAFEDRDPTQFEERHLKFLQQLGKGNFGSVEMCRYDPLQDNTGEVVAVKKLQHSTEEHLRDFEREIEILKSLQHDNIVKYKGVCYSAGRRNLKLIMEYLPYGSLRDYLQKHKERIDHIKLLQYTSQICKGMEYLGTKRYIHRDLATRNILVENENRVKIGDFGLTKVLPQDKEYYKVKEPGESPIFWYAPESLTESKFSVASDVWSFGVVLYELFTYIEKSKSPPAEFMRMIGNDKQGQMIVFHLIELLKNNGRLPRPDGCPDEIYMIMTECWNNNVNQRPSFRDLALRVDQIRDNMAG
Experimental: Erythropoietin (EPO) is known to transduce its signal through EPO receptor via Jak2. Activity against Jak2 was therefore measured by determining inhibition of EPO induced phosphorylation of […] in UT7 cells. From these tests, the EC50 (effective concentration for 50% maximal response) values were determined in 1 μM for the test compounds.

Chain of Non-receptor tyrosine-protein kinase TYK2 (P29597 whole entry): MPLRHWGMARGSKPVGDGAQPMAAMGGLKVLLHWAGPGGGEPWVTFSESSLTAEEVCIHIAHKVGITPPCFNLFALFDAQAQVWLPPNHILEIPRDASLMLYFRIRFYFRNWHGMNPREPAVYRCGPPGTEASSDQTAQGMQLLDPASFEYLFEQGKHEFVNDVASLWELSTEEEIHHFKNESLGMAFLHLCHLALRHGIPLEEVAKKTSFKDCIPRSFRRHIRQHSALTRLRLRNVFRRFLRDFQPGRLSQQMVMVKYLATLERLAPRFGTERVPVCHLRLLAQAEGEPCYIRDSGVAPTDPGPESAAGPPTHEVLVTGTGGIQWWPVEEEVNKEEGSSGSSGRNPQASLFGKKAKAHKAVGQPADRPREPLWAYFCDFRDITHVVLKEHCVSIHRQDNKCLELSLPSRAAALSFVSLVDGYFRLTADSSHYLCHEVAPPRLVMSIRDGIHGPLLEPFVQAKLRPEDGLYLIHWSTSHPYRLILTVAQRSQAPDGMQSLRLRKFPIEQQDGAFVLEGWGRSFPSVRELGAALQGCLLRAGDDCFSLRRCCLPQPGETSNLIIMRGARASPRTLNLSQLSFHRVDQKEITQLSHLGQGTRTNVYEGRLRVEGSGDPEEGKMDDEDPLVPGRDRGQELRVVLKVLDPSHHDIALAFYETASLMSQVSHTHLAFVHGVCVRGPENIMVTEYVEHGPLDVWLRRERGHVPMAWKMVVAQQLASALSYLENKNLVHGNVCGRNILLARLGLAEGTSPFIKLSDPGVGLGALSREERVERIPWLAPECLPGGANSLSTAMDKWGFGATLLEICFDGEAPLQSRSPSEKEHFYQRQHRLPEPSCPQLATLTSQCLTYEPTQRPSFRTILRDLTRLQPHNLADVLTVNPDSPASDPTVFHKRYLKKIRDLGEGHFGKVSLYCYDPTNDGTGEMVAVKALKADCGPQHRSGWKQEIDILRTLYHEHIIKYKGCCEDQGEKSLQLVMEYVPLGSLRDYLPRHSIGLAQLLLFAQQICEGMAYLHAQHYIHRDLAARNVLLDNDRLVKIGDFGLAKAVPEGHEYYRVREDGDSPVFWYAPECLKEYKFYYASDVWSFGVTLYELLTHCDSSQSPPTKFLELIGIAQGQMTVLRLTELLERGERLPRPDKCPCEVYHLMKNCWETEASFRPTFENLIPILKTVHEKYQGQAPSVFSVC

| Compound | EC50 [1] [µM] | EC50 [2] [µM] | EC50 [3] [µM] |
| --- | --- | --- | --- |
| CO[C@@]1(c2cccc(-c3cn([C@@H]4CC4(F)F)c4cnc(NC(N)=O)cc34)n2)CCOC1 [US20190276450, Example 1.2] | 0.045 | 13.5 | > 25 |
| CO[C@@]1(c2cccc(-c3cn(C)c4cnc(NC(N)=O)cc34)n2)CCOC1 [US20190276450, Example 1] | 0.059 | 5.45 | > 25 |
| CO[C@@]1(c2cc(C)cc(-c3cn(C)c4cnc(NC(N)=O)cc34)n2)CCOC1 [US20190276450, Example 1b.2] | 0.025 | 21 | > 25 |
| COC1(c2cccc(-c3cn(C)c4cnc(NC(N)=O)cc34)n2)COC1 [US20190276450, Example 1b.4] | 0.142 | 7.6 | > 25 |
| Cn1cc(-c2cncc([C@]3(C)CCOC3)n2)c2cc(NC(N)=O)ncc21 [US20190276450, Example 1b.5] | 0.018 | 1.5 | > 25 |
| Cn1cc(-c2cncc([C@@]3(C)CCOC3)n2)c2cc(NC(N)=O)ncc21 [US20190276450, Example 1b.6] | 0.195 | 4.2 | > 25 |
| CO[C@@]1(c2cc(C)cc(-c3cn(C)c4cnc(NC(C)=O)cc34)n2)CCOC1 [US20190276450, Example 2.2] | 0.198 | 41 | > 25 |
| CO[C@@]1(c2cc(C(F)F)cc(-c3cn(C)c4cnc(NC(C)=O)cc34)n2)CCOC1 [US20190276450, Example 2.8] | 0.042 | 17 | > 25 |
| CC[C@]1(c2cc(C#N)cc(-c3cn(C)c4cnc(NC(C)=O)cc34)n2)CCOC1 [US20190276450, Example 2.11] | 0.104 | 7.5 | > 25 |
| COCc1cc(-c2cn(C)c3cnc(NC(C)=O)cc23)nc([C@]2(OC)CCOC2)c1 [US20190276450, Example 2] | 0.126 | > 40 | > 25 |
| CO[C@@]1(c2cc(C#N)cc(-c3cn([C@@H]4CC4(F)F)c4cnc(NC(C)=O)cc34)n2)CCOC1 [US20190276450, Example 2a.3] | 0.127 | 56 | > 25 |
| CC[C@@]1(c2cccc(-c3cn(C)c4cnc(NC(N)=O)cc34)n2)CCOC1 [US20190276450, Example 3.2] | 0.014 | 3.4 | > 25 |
| COCc1cc(-c2cn(C)c3cnc(NC(N)=O)cc23)nc([C@]2(OC)CCOC2)c1 [US20190276450, Example 3] | 0.035 | 18 | > 25 |
| CO[C@@]1(c2cc(C(F)F)cc(-c3cn(C4COC4)c4cnc(NC(C)=O)cc34)n2)CCOC1 [US20190276450, Example 4.3] | 0.174 | 54 | > 25 |
| COCc1cc(-c2cn(C3COC3)c3cnc(NC(C)=O)cc23)nc([C@]2(OC)CCOC2)c1 [US20190276450, Example 4] | 0.137 | > 100 | > 25 |
| CO[C@@]1(c2cc(OCC3COC3)cc(-c3cn(C)c4cnc(NC(C)=O)cc34)n2)CCOC1 [US20190276450, Example 6] | 0.05 | 21 | > 25 |
| CO[C@@]1(c2cc(OCC[C@@H](C)O)cc(-c3cn(C)c4cnc(NC(C)=O)cc34)n2)CCOC1 [US20190276450, Example 7] | 0.878 | 34 | > 25 |
| CO[C@@]1(c2cc(OCC[C@H](C)O)cc(-c3cn(C)c4cnc(NC(C)=O)cc34)n2)CCOC1 [US20190276450, Example 9] | 0.085 | 42 | > 25 |
| CO[C@@]1(c2cc(OCCO)cc(-c3cn(C)c4cnc(NC(C)=O)cc34)n2)CCOC1 [US20190276450, Example 10] | 0.091 | 27 | > 25 |
| CO[C@@]1(c2cc(O[C@H]3C[C@H](O)C3)cc(-c3cn(C)c4cnc(NC(C)=O)cc34)n2)CCOC1 [US20190276450, Example 11] | 0.052 | 23 | > 25 |

| Compound | EC50 [1] [µM] | EC50 [2] [µM] | EC50 [3] [µM] |
| --- | --- | --- | --- |
| CO[C@@]1(c2cc(C#N)cc(-c3cn(C)c4cnc(NC(N)=O)cc34)n2)CCOC1 [US20190276450, Example 12.3] | 0.094 | 13 | > 25 |
| COc1cc(-c2cn(C)c3cnc(NC(N)=O)cc23)nc([C@]2(OC)CCOC2)c1 [US20190276450, Example 12.6] | 0.039 | 15 | > 25 |
| CO[C@@]1(c2cncc(-c3cn(C)c4cnc(NC(N)=O)cc34)n2)CCOC1 [US20190276450, Example 12] | 0.244 | 16.2 | > 25 |
| CO[C@@]1(c2cc(O[C@@H](C)CCO)cc(-c3cn(C)c4cnc(NC(C)=O)cc34)n2)CCOC1 [US20190276450, Example 14.4] | 0.134 | 63 | > 25 |
| CO[C@@]1(c2cc(OC[C@H](C)O)cc(-c3cn(C)c4cnc(NC(C)=O)cc34)n2)CCOC1 [US20190276450, Example 14.5] | 0.146 | 71 | > 25 |
| CO[C@@]1(c2cc(OC[C@@H](C)O)cc(-c3cn(C)c4cnc(NC(C)=O)cc34)n2)CCOC1 [US20190276450, Example 14.6] | 0.087 | 49 | > 25 |
| CO[C@@]1(c2cc(C(F)F)cc(-c3cn([C@H]4C[C@H](C#N)C4)c4cnc(NC(C)=O)cc34)n2)CCOC1 [US20190276450, Example 17.2] | 0.144 | 35 | > 25 |
| CO[C@@]1(c2cccc(-c3cn([C@H]4C[C@H](C#N)C4)c4cnc(NC(C)=O)cc34)n2)CCOC1 [US20190276450, Example 17] | 0.031 | 27 | > 25 |
| CC(=O)Nc1cc2c(-c3cccc([C@]4(CO)CCOC4)n3)cn(C)c2cn1 [US20190276450, Example 21] | 0.08 | 2.8 | > 25 |
| CO[C@@]1(c2cc(OC(F)F)cc(-c3cn(C)c4cnc(NC(C)=O)cc34)n2)CCOC1 [US20190276450, Example 22.2] | 0.089 | 35 | > 25 |
| CC(=O)Nc1cc2c(-c3cc(C(F)F)cc([C@]4(CO)CCOC4)n3)cn(C)c2cn1 [US20190276450, Example 22.5] | 0.072 | 7.05 | > 25 |
| COc1cc(-c2cn(C)c3cnc(NC(C)=O)cc23)nc([C@]2(CO)CCOC2)c1 [US20190276450, Example 22.6] | 0.13 | 11.1 | > 25 |
| COCCOc1cc(-c2cn(C)c3cnc(NC(C)=O)cc23)nc([C@]2(CO)CCOC2)c1 [US20190276450, Example 22.8] | 0.184 | 18.9 | > 25 |
| CO[C@H](C)COc1cc(-c2cn(C)c3cnc(NC(C)=O)cc23)nc([C@]2(OC)CCOC2)c1 [US20190276450, Example 22.10] | 0.092 | > 25 | > 25 |
| COCc1cc(-c2cn(C)c3cnc(NC(C)=O)cc23)nc([C@]2(CO)CCOC2)c1 [US20190276450, Example 22] | 0.146 | 10.5 | > 25 |
| COCc1cc(-c2cn(C)c3cnc(NC(C)=O)cc23)nc([C@@]2(CO)CCOC2)c1 [US20190276450, Example 22a] | 1.2 | – | > 25 |
| COCc1cc(-c2cn(C)c3cnc(NC(=O)CO)cc23)nc([C@]2(OC)CCOC2)c1 [US20190276450, Example 24] | 0.092 | > 100 | > 25 |
| COCCOc1cc(-c2cn(C)c3cnc(NC(C)=O)cc23)nc([C@]2(OC)CCOC2)c1 [US20190276450, Example 25] | 0.025 | 49 | > 25 |
| CO[C@@]1(c2cc(C(F)F)cc(-c3cn(C)c4cnc(NC(=O)CO)cc34)n2)CCOC1 [US20190276450, Example 26] | 0.05 | > 25 | > 25 |
